Results on one compound are retold here after patent US10858364B2, “Imidazopyrazine inhibitors of Bruton's tyrosine kinase” (Acerta Pharma B.V., priority 2016, dated 2020).

The subject of data set [1] is CYP1A2. As to the kind of experiment: CYP induction, CYP1A2. Type of data set: in vitro ADME.
The target of data set [2] is CYP1A2 (Homo sapiens (Human), UniProt P05177).
Another data set deals with CYP3A enzymes. As to the kind of experiment: In vitro metabolism studies. Type of data set: in vitro ADME.
Another data set has as its target CYP2C9 (Homo sapiens (Human), UniProt P11712). As to the kind of experiment: CYP inhibition, CYP2C9. Type of data set: in vitro ADME.
Another data set addresses CYP2D6 (Homo sapiens (Human), UniProt P10635). As to the kind of experiment: CYP inhibition, CYP2D6. The format is in vitro ADME.
Another data set concerns the target CYP2C8 (Homo sapiens (Human), UniProt P10632). As to the kind of experiment: CYP inhibition, CYP2C8. The format is in vitro ADME.
The target in data set [3] is CYP2B6 (Homo sapiens (Human), UniProt P20813). As to the kind of experiment: CYP inhibition, CYP2B6. The format is in vitro ADME.
The nature of data set [4]: Clinical pharmacokinetics of acalabrutinib and its major metabolite. The format is in vivo, human. An excerpt:
The compound of Formula (I) was identified as the major metabolite in plasma with a geometric mean exposure (AUC) approximately 2- to 3-fold higher than the exposure of acalabrutinib.
Acalabrutinib and the major metabolite form a covalent bond with a cysteine residue in the BTK active site, leading to inhibition of BTK enzymatic activity. Acalabrutinib binding with the cysteine residue occurs rapidly and irreversibly and provides high target occupancy at steady state.

A further data set deals with CYP2C19 (Homo sapiens (Human), UniProt P33261). As to the kind of experiment: CYP inhibition, CYP2C19. Type of data set: in vitro ADME.
In the next data set the test system is CYP3A4. As to the kind of experiment: CYP induction, CYP3A4. Type of data set: in vitro ADME.
The next data set deals with CYP3A4/5. As to the kind of experiment: CYP inhibition, CYP3A4/5. The format is in vitro ADME.
Data set [5] relates to CYP2B6. As to the kind of experiment: CYP induction, CYP2B6. The format is in vitro ADME.

As a reminder, the half-life is the time in which the quantity being followed falls by half.

CYP1A2 (Homo sapiens (Human), UniProt P05177), sequence (P05177 whole entry): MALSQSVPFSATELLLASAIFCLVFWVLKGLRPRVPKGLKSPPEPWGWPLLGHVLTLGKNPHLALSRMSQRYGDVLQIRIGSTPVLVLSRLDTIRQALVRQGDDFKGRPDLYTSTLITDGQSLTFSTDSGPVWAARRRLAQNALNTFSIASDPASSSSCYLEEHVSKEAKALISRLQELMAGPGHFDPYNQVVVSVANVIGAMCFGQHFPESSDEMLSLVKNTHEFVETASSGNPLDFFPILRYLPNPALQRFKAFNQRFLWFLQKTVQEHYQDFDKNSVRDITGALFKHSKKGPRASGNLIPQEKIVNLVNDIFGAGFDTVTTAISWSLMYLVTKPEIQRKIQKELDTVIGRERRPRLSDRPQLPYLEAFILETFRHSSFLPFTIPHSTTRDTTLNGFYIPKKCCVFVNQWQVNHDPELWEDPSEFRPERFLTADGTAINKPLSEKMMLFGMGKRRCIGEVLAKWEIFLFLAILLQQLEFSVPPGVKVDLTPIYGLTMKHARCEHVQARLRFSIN
CYP2C19, sequence (P33261 whole entry): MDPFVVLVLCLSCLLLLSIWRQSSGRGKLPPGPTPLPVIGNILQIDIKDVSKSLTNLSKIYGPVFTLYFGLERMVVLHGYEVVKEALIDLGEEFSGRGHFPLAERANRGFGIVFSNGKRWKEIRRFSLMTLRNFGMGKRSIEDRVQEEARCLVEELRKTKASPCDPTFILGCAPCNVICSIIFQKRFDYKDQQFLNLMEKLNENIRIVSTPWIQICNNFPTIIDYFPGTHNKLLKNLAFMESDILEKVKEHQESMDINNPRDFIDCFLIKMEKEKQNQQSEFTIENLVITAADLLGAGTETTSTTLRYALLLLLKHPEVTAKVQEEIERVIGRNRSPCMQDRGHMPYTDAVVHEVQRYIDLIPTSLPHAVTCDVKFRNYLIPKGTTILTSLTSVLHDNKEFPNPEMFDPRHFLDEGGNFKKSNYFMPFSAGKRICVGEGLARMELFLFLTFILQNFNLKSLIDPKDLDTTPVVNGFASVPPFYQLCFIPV
CYP2B6 (Homo sapiens (Human), UniProt P20813), sequence (P20813 whole entry): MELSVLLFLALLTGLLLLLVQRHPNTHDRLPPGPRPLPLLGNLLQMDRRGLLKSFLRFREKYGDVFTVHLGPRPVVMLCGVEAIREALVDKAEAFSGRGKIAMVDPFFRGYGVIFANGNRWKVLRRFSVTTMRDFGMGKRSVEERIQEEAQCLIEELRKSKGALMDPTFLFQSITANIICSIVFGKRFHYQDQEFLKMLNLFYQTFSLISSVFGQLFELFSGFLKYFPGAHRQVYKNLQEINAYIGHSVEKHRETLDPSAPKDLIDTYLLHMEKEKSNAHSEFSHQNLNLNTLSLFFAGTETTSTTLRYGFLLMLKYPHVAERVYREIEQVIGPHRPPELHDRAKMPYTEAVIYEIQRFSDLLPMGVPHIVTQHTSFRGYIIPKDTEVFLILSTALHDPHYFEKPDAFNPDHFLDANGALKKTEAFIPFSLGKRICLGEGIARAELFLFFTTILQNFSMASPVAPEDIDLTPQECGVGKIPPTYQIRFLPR
CYP2D6, sequence (P10635 whole entry): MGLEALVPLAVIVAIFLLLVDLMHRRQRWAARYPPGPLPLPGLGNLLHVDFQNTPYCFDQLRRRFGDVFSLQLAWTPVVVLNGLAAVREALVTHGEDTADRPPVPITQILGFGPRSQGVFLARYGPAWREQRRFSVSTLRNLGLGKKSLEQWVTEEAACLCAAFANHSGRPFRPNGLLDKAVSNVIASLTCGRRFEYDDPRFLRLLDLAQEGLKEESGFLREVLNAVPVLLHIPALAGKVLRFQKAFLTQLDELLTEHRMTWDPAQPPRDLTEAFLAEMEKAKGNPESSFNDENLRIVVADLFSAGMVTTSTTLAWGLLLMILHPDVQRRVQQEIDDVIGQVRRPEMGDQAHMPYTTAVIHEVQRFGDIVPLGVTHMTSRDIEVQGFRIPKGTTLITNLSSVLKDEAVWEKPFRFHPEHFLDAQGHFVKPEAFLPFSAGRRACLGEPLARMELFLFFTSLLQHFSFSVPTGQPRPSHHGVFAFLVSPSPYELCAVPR
CYP2C8, sequence (P10632 whole entry): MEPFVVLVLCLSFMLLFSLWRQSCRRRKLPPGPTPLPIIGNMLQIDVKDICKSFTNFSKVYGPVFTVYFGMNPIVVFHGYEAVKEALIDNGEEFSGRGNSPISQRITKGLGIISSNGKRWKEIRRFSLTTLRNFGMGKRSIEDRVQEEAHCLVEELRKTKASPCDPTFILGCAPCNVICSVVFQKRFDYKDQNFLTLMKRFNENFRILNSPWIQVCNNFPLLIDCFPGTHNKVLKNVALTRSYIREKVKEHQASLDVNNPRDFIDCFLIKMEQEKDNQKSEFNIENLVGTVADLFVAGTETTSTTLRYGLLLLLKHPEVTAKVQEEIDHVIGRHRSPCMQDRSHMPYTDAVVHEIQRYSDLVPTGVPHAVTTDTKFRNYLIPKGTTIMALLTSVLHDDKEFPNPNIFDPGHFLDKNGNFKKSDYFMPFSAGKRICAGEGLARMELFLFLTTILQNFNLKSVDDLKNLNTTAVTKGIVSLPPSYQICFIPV
CYP2C9, sequence (P11712 whole entry): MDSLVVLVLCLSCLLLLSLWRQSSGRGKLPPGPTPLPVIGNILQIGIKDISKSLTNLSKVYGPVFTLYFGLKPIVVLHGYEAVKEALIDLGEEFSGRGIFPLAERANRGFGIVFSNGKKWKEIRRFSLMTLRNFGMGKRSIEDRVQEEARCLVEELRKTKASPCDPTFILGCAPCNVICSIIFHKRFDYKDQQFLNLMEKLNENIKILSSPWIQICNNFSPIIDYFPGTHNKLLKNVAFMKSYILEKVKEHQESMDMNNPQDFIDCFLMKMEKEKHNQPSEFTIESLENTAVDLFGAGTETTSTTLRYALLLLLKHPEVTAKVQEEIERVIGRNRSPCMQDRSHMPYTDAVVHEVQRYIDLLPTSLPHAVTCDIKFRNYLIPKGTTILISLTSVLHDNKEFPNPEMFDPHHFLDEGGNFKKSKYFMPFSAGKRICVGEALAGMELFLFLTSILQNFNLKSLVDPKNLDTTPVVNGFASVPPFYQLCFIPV

For `CC#CC(=O)N1CCC[C@H]1c1nc(-c2ccc(C(=O)Nc3ccccn3)cc2)c2c(N)nccn12` [acalabrutinib, reference compound], in the data set with CYP1A2 [1], the CYP1A2 induction result was “weak inducer”. In addition, the CYP1A2 inhibition result at CYP1A2 [2] is reported as “does not inhibit”. Moreover, the metabolic route result with CYP3A enzymes is “predominantly metabolized by CYP3A enzymes”. Also, the CYP2C9 inhibition entry on CYP2C9 is “weak inhibitor”. Moreover, at CYP2D6, the CYP2D6 inhibition result is “does not inhibit”. The CYP2C8 inhibition entry on CYP2C8 was “weak inhibitor”. Moreover, the CYP2B6 inhibition result at CYP2B6 [3] is listed as “does not inhibit”. Also, the half-life in [4] (human, in vivo, single oral dose of 100 mg acalabrutinib, read-out: median terminal elimination half-life (t½) (converted)) is 54 min. For the same compound, the “mean apparent oral clearance (CL/F)” value in data set [4] (population pharmacokinetics analysis) was 159 L/h. The CYP2C19 inhibition result at CYP2C19 was “does not inhibit”. Besides, in the data set on CYP3A4, the CYP3A4 induction entry is “weak inducer”. Also, in the data set with CYP3A4/5, the CYP3A4/5 inhibition entry was “weak inhibitor”. In addition, the CYP2B6 induction result in the data set on CYP2B6 [5] is on record as “weak inducer”.
